Earlier results in patent US8022220B2, “Process for production of piperidine derivatives” (Albany Molecular Research, Inc., priority 1995, dated 2011).

Tested on: delayed rectifier potassium current
Conditions: concentrations up to 5 μM; isolated feline ventricular myocytes

CC(C)(C(=O)O)c1ccc(C(O)CCCN2CCC(C(O)(c3ccccc3)c3ccccc3)CC2)cc1 (stereo not drawn) [terfenadine carboxylic acid metabolite, 4-[4-[4-(hydroxydiphenylmethyl)-1-piperidinyl]-1-hydroxybutyl]-α-α-dimethylphenylacetic acid]
effect on the potassium current: no significant effect
